Experimental data published in patent US20060009433A1, “Neuroprotective spirostenol pharmaceutical compositions” (priority 2003, published 2006).

Tests used:
Aβ1-42 = Aβ1-42 (Homo sapiens, UniProt P05067); assay: Aβ aggregation assay (SDS-PAGE, immunoblot); assay type: biochemical; conditions: 50 μM Aβ1-42; 24 hours at 37° C.
Protocol: At the end of the incubation, proteins were separated by SDS-PAGE on 4-20% gradient acrylamide-bis-acrylamide gel at 125V for 2 hours. Proteins were visualized by coomassie blue staining. Aβ species were identified by immunoblot analysis. Yao, Z. et al., Brain Res. (2001).
The ability of 22R-hydroxycholesterol to alter Aβ aggregation was also examined. […] At the end of the incubation proteins were separated by SDS-PAGE and visualized by coomassie blue (FIG. 6A). Aβ species formed were identified by immunoblotting using an anti-Aβ polyclonal antiserum (FIG. 6B). Aβ aggregation can be seen on the top of the gel and it is absent in control-media lane. […] A 100 kDa band recognized by the Aβ polyclonal antiserum used in all samples, including control-media, probably reflects non-specific binding of the antiserum.

Aβ17-40 = biological target: T1, Aβ17-40 (Homo sapiens, UniProt P05067); assay: CPBBA, Aβ17-40; assay type: binding
T1 construct: purchased American Peptide Co. (Sunnyvale, Calif.)
T1 sequence (P05067 688-711 limits assumed): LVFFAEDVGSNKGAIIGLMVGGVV
Protocol: (§1) At the end of the incubation time, samples were separated by 1.5% agarose (Type I-B) gel electrophoresis and transferred to nitrocellulose membrane (Schleicher & Schuell, Keene, N.H.) in 10×SSC buffer. The membrane was exposed to tritium-sensitive screen and analyzed by phosphoimaging using the Cyclone Storage phosphor system (Packard BioScience, Meridien, Conn.). Image-densitometric analysis was performed using the OptiQuant software (Packard). […] Low molecular weight unincorporated 22i-hydroxycholesterol is separated and eliminated during electrophoresis.

Aβ25-35 = Aβ25-35 (Homo sapiens, UniProt P05067); assay: CPBBA, Aβ25-35; assay type: binding
Protocol: as §1

[1] = tested on: differentiated NT2N neuronal cells; assay: MTT assay, viability of differentiated NT2N neuronal cells; assay type: cell-based, human
From the text: During CNS development in vivo, cells actively participate in two opposing processes: proliferation and death (Ross, Trends Neurosci., 19, 62 (1996)). In NT2 cells, early programmed cell death (apoptosis) has been associated with the induction of differentiation by RA, it occurs mainly in undifferentiated cells, and it coincides with first detection of the neuronal phenotye (NT2N), i.e., significant apoptotic cell death could be quantified during the third and fourth days of the RA treatment using annexin V labeling as a marker of apoptosis (Guillemain et al., J. Neurosci. Res., 71, 38 (2003)). […] Thus, apoptotic cell death of undifferentiated NT2 cells also occurred during 22R-hydroxycholesterol-induced differentiation.

NT2 cells [2] = assay: Expression of GFRα receptor proteins in NT2 cells (immunoblot); assay type: cell-based, human; conditions: 25 μM; 6 days
Protocol: Cells were fixed with newly prepared 3.7% formaldehyde for 15 minutes and blocked by blocking reagent (Zymed Laboratories, San Francisco, Calif., USA). Inuunostaining was performed using rabbit anti-NF200, anti-NF145 and anti-NF70 (all at 1:200), and goat anti-GFRα1, anti-GFRα2 and anti-GFRα3 (all at 1:100); Santa Cruz Biotechnology (Santa Cruz, Calif., USA). All antibodies were used at 200 μg/ml. After overnight incubation at 4° C., the immunoreactivity was detected using horseradish peroxidase-conjugated anti-rabbit or anti-mouse IgG for 1 hour at room temperature and visualized using AEC.
Cells were then washed with phosphate-buffered saline (PBS) and lysed with loading buffer. Proteins were resolved by sodium dodecyl sulfate polyacrylamide gel electrophoresis (SDS-PAGE) on 4-20% gradient acrylamide-bis-acrylamide gel at 125 V for 2 hours and electrotransferred onto nitrocellulose membranes. After blocking with 5% nonfat milk, the membranes were subjected to immunoblot analysis by incubation overnight with rabbit anti-NF200, anti-NF145 and anti-NF70 (all at 1:4000) (Chemicon International, Temecula, Calif., USA) and goat anti-GFRα1, anti-GFRα2 and anti-GFRα3 (all at 1:500) (200 μg/ml; Santa Cruz Biotechnology, Inc., Santa Cruz, Calif., USA), goat anti-rabbit or rabbit anti-goat IgG-horseradish peroxidase being used as the secondary antibody (1:5000) (Zymed Laboratories, San Francisco, Calif., USA). Protein bands were visualized using ECL reagents (Amersham Pharmacia Biotech, Piscataway, N.J., USA). Image-densitometric analyses of the immunoreactive protein bands were performed using OptiQuant-image analysis software (Packard BioScience, Meriden, Conn., USA). Glyceraldehyde-3-phosphate dehydrogenase (GAPPH) served as an internal standard.

NT2 cells [3] = assay: BrdU assay, NT2 cell proliferation; assay type: cell-based, human
human NT2 cells = assay: Trypan blue dye exclusion assay, NT2 cells; assay type: cell-based; conditions: 25 μM steroid, 72 hours
Protocol: Rat PC12 cells were cultured as previously described. Yao et al., Brain Res. 889, 181-190 (2001). Human NT2 precursor (Ntera2/D1 teratocarcinoma) cells were obtained from Stratagene (La Jolla, Calif.) and cultured following the instructions of the supplier. Differentiated human NT2 neurons (NT2N) were obtained after treatment of the NT2 precursor cells with retinoic acid. Andrews, Dev. […] Aβ was dissolved in media and used either in the aggregated (left overnight at 4° C.) or soluble (containing oligomers such as dimers and tetramers) forms examined by electrophoresis as previously described. Yao et al., Brain Res. (2001). […] Id. Cell viability was measured using the trypan blue exclusion method as previously described. Id. In brief, for these studies, cells were treated for 72 hours with steroids in the presence or absence of increasing concentrations of Aβ. At the end of the incubation, the cells were washed three times with PBS and incubated for 15 minutes with 0.1% trypan blue stain solution at room temperature. After washing three times with PBS, 0.1 N NaOH was added to the cells and trypan blue staining was quantified using the Victor quantitative detection spectrophotometer (EGG-Wallac, Gaithersburg, Md.) at 450 nm. Cell protein levels were determined in the same samples by the method of Bradford (Bradford, Anal. Biochem., 72, 248-254 (1976)), where coomassie blue staining is detected at 590 nm.
The results obtained from using MTT assay were further confirmed with the trypan blue dye exclusion assay. […] Levels of viability were measured using the trypan blue assay as described under Materials and Methods. Results are expressed as fold trypan blue stained cells per total cell protein over control untreated cells. Results shown are means±SD (n=6-12).

Aβ1-42, sequence (P05067 672-713): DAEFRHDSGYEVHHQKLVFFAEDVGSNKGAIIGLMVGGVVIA

CC(C)CC[C@@H](O)[C@@H](C)[C@H]1CC[C@H]2[C@@H]3CC=C4C[C@@H](O)CC[C@]4(C)[C@H]3CC[C@]12C [SP222, 22R-hydroxycholesterol]
effect on Aβ aggregation (Aβ1-42): did not affect Aβ aggregation | binding to Aβ17-40 (Aβ17-40; CPBBA): binds | 22R-hydroxycholesterol-binding site in Aβ (Aβ17-40; CPBBA with various Aβ synthetic peptides): amino acids 17-40 of Aβ | binding to Aβ25-35 (Aβ25-35): did not bind | effect on viability of differentiated NT2N neuronal cells [1]: had no effect | decrease of GFRα3 protein expression (NT2 cells [2]): about 16% | expression of GFRα1 (NT2 cells [2]): no significant effect | increase of GFRα2 protein expression over the control level (NT2 cells [2]): 45% | NT2 cell proliferation at 25 μM (NT2 cells [3]; 25 μM): significantly inhibited | NT2 cell proliferation at 50 μM (NT2 cells [3]; 50 μM): significantly inhibited | rescue from Aβ1-42-induced cell death (human NT2 cells): rescued | rescue from Aβ25-35-induced cell death (human NT2 cells): Neither 22R-hydroxycholesterol nor DHEA could rescue
